Test results reported in PubChem BioAssay AID1845199 (Molecular Pharmacology Branch, DTP, NCI, 2023).
pIC50: −log10 of the molar value.

System: 556581-035-R-J1 tumor spheroid viability, % test/control
Experiment: Anticancer human tumor 556581-035-R-J1 patient-derived ovarian carcinoma cell line growth inhibition
Details: spheroids with HUVEC and MSC; for pIC50: curve of first compound; for viability, T/C: stronger effect = lower value
In short: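 Complex spheroids of malignant cells with endothelial cells and mesenchymal stem cells; agents alone or combined, from near clinical Cmax (or 10 microM if unknown) down in half-log steps, 0.25% DMSO final.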
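Note: spheroids exposed to compounds for 7 days before viability read.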

## Cc1cc(C)c(CNC(=O)c2cc(-c3ccc(CN4CCOCC4)cc3)cc3c2cnn3C2CCCC2)c(=O)[nH]1 + Cn1nnc2c(C(N)=O)ncn2c1=O
Second compound 1 µM
  pIC50: < 5.00
Second compound 3.16 µM
  pIC50: < 5.00
Second compound 10 µM
  pIC50: < 5.00
Second compound 31.6 µM
  pIC50: < 5.00
Second compound 100 µM
  pIC50: < 5.00
Second compound 1 µM, first compound 0.0316 µM
  viability, T/C: 105%
Second compound 1 µM, first compound 0.1 µM
  viability, T/C: 107%
Second compound 1 µM, first compound 0.316 µM
  viability, T/C: 110%
Second compound 1 µM, first compound 1 µM
  viability, T/C: 103%
Second compound 1 µM, first compound 3.16 µM
  viability, T/C: 110%
Second compound 1 µM, first compound 10 µM
  viability, T/C: 88%
Second compound 3.16 µM, first compound 0.0316 µM
  viability, T/C: 107%
Second compound 3.16 µM, first compound 0.1 µM
  viability, T/C: 108%
Second compound 3.16 µM, first compound 0.316 µM
  viability, T/C: 112%
Second compound 3.16 µM, first compound 1 µM
  viability, T/C: 108%
Second compound 3.16 µM, first compound 3.16 µM
  viability, T/C: 108%
Second compound 3.16 µM, first compound 10 µM
  viability, T/C: 88.2%
Second compound 10 µM, first compound 0.0316 µM
  viability, T/C: 118%
Second compound 10 µM, first compound 0.1 µM
  viability, T/C: 118%
Second compound 10 µM, first compound 0.316 µM
  viability, T/C: 111%
Second compound 10 µM, first compound 1 µM
  viability, T/C: 121%
Second compound 10 µM, first compound 3.16 µM
  viability, T/C: 114%
Second compound 10 µM, first compound 10 µM
  viability, T/C: 93.6%
Second compound 31.6 µM, first compound 0.0316 µM
  viability, T/C: 115%
Second compound 31.6 µM, first compound 0.1 µM
  viability, T/C: 105%
Second compound 31.6 µM, first compound 0.316 µM
  viability, T/C: 116%
Second compound 31.6 µM, first compound 1 µM
  viability, T/C: 108%
Second compound 31.6 µM, first compound 3.16 µM
  viability, T/C: 110%
Second compound 31.6 µM, first compound 10 µM
  viability, T/C: 86.1%
Second compound 100 µM, first compound 0.0316 µM
  viability, T/C: 113%
Second compound 100 µM, first compound 0.1 µM
  viability, T/C: 116%
Second compound 100 µM, first compound 0.316 µM
  viability, T/C: 107%
Second compound 100 µM, first compound 1 µM
  viability, T/C: 122%
Second compound 100 µM, first compound 3.16 µM
  viability, T/C: 109%
Second compound 100 µM, first compound 10 µM
  viability, T/C: 84.8%

## CC(C)n1c(=O)n(C)c2cnc3cc(F)c(-c4ccc(OCCCN5CCCCC5)nc4)cc3c21 + COc1cc2c(cc1O)CCNC21CSC2c3c(OC(C)=O)c(C)c4c(c3C(COC1=O)N1C(O)C3Cc5cc(C)c(OC)c(O)c5C(C21)N3C)OCO4
Second compound 30 pM
  pIC50: < 5.00
Second compound 94.9 pM
  pIC50: < 5.00
Second compound 0.0003 µM
  pIC50: < 5.00
Second compound 0.000949 µM
  pIC50: > 7.50
Second compound 0.003 µM
  pIC50: > 7.50
Second compound 30 pM, first compound 0.0316 µM
  viability, T/C: 86.3%
Second compound 30 pM, first compound 0.1 µM
  viability, T/C: 97.8%
Second compound 30 pM, first compound 0.316 µM
  viability, T/C: 96.5%
Second compound 30 pM, first compound 1 µM
  viability, T/C: 91%
Second compound 30 pM, first compound 3.16 µM
  viability, T/C: 89.2%
Second compound 30 pM, first compound 10 µM
  viability, T/C: 73.7%
Second compound 94.9 pM, first compound 0.0316 µM
  viability, T/C: 94.9%
Second compound 94.9 pM, first compound 0.1 µM
  viability, T/C: 98%
Second compound 94.9 pM, first compound 0.316 µM
  viability, T/C: 95.6%
Second compound 94.9 pM, first compound 1 µM
  viability, T/C: 95.6%
Second compound 94.9 pM, first compound 3.16 µM
  viability, T/C: 86%
Second compound 94.9 pM, first compound 10 µM
  viability, T/C: 66.6%
Second compound 0.0003 µM, first compound 0.0316 µM
  viability, T/C: 96.1%
Second compound 0.0003 µM, first compound 0.1 µM
  viability, T/C: 96.8%
Second compound 0.0003 µM, first compound 0.316 µM
  viability, T/C: 98.8%
Second compound 0.0003 µM, first compound 1 µM
  viability, T/C: 97.7%
Second compound 0.0003 µM, first compound 3.16 µM
  viability, T/C: 84.4%
Second compound 0.0003 µM, first compound 10 µM
  viability, T/C: 62.3%
Second compound 0.000949 µM, first compound 0.0316 µM
  viability, T/C: 44.8%
Second compound 0.000949 µM, first compound 0.1 µM
  viability, T/C: 35%
Second compound 0.000949 µM, first compound 0.316 µM
  viability, T/C: 37.1%
Second compound 0.000949 µM, first compound 1 µM
  viability, T/C: 48.5%
Second compound 0.000949 µM, first compound 3.16 µM
  viability, T/C: 39.1%
Second compound 0.000949 µM, first compound 10 µM
  viability, T/C: 17.6%
Second compound 0.003 µM, first compound 0.0316 µM
  viability, T/C: 0.76%
Second compound 0.003 µM, first compound 0.1 µM
  viability, T/C: 1.38%
Second compound 0.003 µM, first compound 0.316 µM
  viability, T/C: 0.61%
Second compound 0.003 µM, first compound 1 µM
  viability, T/C: 0.59%
Second compound 0.003 µM, first compound 3.16 µM
  viability, T/C: 0.42%
Second compound 0.003 µM, first compound 10 µM
  viability, T/C: 0.65%
